Reference: publication PMC5618561 (International Journal of Molecular Sciences, 2017)
Read-outs that look alike come from different tables or passages of the source.

How the values were obtained:
[1] = molecular target: T1, α-lipoamide dehydrogenase (Rattus norvegicus, UniProt Q6P6R2); test: α-lipoamide dehydrogenase activity in intact mitochondria (re-reduction of NAD(P)+ after α-lipoamide, NAD(P)H fluorescence); assay type: biochemical; details: for IC50: read-out: Apparent IC50 of inhibition of α-lipoamide dehydrogenase; for inhibition of α-lipoamide dehydrogenase (in words): rat liver mitochondria, abstract summary
T1 construct: After 3 min incubation of rat liver mitochondria (0.3 mg protein/mL) in MTP medium; from tissue; host or cells: liver mitochondria of Wistar rat
T1 sequence (Q6P6R2 36-509): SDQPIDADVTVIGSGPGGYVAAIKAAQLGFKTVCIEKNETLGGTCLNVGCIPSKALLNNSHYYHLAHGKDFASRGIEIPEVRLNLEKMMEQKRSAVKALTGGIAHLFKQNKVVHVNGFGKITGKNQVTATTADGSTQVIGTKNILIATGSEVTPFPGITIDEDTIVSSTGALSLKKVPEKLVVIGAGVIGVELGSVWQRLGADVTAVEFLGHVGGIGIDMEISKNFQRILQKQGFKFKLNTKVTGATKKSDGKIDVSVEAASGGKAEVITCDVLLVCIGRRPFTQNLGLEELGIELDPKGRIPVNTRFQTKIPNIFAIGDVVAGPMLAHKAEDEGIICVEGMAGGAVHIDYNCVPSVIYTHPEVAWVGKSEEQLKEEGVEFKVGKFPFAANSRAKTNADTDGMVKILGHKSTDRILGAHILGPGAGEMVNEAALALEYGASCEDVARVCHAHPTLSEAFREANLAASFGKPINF

SWV/Finn mice = details: cited from earlier work
[2] = system: 2-oxoglutarate oxidation of isolated rat liver mitochondria; test: ADP-stimulated 2-oxoglutarate oxidation of rat liver mitochondria; assay type: biochemical; details: 3 min preincubation with 1 mM ATP, 5 mM MgCl2, 10 mM 2-oxoglutarate, 1 mM ADP, read-out: Apparent IC50 of inhibition of 2-oxoglutarate oxidation
[3] = system: pyruvate oxidation of isolated rat liver mitochondria; test: ADP-stimulated pyruvate oxidation of isolated rat liver mitochondria (high-resolution respirometry); assay type: biochemical
[4] = system: glutamate oxidation of isolated rat liver mitochondria; test: ADP-stimulated glutamate (+ malate) oxidation of rat liver mitochondria; assay type: biochemical; details: 3 min preincubation with 1 mM ATP, 5 mM MgCl2, 10 mM glutamate, 5 mM malate, 1 mM ADP, read-out: Apparent IC50 of inhibition of glutamate oxidation
[5] = system: pyruvate transport of rat liver mitochondria; test: pyruvate transport: pyruvate-dependent swelling of mitochondria in ammonium pyruvate; assay type: biochemical; details: 1 mM compound; rat liver mitochondria in 0.1 M ammonium pyruvate
Method: (§1) (A) The plotted pyruvate dehydrogenase (PDH) activities are averages of three independent experiments; (B) Swelling of mitochondria in 0.1 M ammonium pyruvate buffer. One representative experiment (out of 3) is shown. […] Experimental conditions as described in Materials and Methods.
For pyruvate transport determinations, the mitochondrial suspension (0.6–0.7 mg protein) was placed into a 3 mL spectrophotometric cuvette, containing 5 mM MgCl2, 2 µM rotenone, 1.5 µg/mL antimycin, and 0.1 M ammonium pyruvate (obtained from ammonium hydroxide and pyruvic acid). When indicated, 1 mM cinnamate was added. Mitochondrial swelling was estimated at 30 °C using a spectrophotometer (Aminco DW 2000, SLM Instruments) at 546 nm.

[6] = patients with epilepsy; cited from earlier work
pyruvate dehydrogenase = molecular target: T2, pyruvate dehydrogenase (Rattus norvegicus, UniProt P26284+P49432); test: pyruvate dehydrogenase (PDH) activity of isolated rat liver mitochondria; assay type: biochemical; details: preincubation with 10 mM VPA and 1 mM ATP; excess α-lipoamide dehydrogenase
T2 construct: the mitochondrial suspension (0.3 mg protein) was placed into a 0.5 mL spectrophotometric cuvette; from tissue; host or cells: liver mitochondria of Wistar rat, solubilised with 0.1% N-dodecyl-β-D-maltoside
T2 sequence (P26284 30-390): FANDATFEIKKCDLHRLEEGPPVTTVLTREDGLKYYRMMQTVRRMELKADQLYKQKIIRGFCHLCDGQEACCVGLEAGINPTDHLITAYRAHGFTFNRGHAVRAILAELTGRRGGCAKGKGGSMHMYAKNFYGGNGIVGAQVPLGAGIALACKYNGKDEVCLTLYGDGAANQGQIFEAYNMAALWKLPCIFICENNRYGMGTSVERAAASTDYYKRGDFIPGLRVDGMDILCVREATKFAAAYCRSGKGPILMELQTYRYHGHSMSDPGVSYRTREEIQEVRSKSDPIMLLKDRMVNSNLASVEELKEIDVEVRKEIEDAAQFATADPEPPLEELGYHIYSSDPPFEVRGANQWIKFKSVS
T2 sequence (P49432 31-359): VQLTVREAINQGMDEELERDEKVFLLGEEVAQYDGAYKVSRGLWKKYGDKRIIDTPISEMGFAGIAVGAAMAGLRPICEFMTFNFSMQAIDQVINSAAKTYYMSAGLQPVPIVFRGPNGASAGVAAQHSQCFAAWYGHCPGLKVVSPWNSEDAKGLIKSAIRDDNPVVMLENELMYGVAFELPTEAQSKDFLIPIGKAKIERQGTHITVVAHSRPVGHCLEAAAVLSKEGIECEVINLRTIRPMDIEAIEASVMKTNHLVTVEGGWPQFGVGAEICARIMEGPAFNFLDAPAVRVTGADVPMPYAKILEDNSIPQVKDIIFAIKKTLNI
Method: as §1
PDH activity in this suspension was determined according to Scislowski and Davis with the following modifications: the mitochondrial suspension (0.3 mg protein) was placed into a 0.5 mL spectrophotometric cuvette, containing 0.1 M potassium phosphate buffer (pH 7.4), 5 mM MgCl2, 3 mM NAD^+, 0.1 mM CoASH, 2 mM dithiothreitol, 0.1% N-dodecyl-β-D-maltoside, 0.4 mM thiamine pyrophosphate, 20 µg/mL diaphorase (Boehringer Mannheim, Mannheim, Germany), and 10 mM pyruvate. PDH activity was measured at 30 °C using a spectrophotometer (Aminco DW 2000, SLM Instruments, Urbana, IL, USA) with 340–380 nm dual wavelength photometry.

[7] = system: pilocarpine-induced status epilepticus (SE); details: cited from earlier work; for protection against pilocarpine-induced status epilepticus: rat
epilepsy model = details: racemate; dependent on the epilepsy model; cited from earlier work
[8] = cited from earlier work
[9] = SWV/Finn mice, strain highly susceptible to VPA-induced teratogenicity
[10] = isolated rat liver mitochondria, 3 min preincubation with drug, 1 mM ATP, 5 mM MgCl2, 10 mM pyruvate, 5 mM malate, ADP, read-out: Apparent IC50 of inhibition of pyruvate oxidation
[11] = isolated rat liver mitochondria, pyruvate-dependent reduction of NAD(P)+, estimated value

| Compound | teratogenic effects (SWV/Finn mice; [9]) | inhibition of α-lipoamide dehydrogenase (in words) [1] | IC50 [2] [µM] | IC50 [3, 10] [µM] | IC50 [4] [µM] | other results |
| --- | --- | --- | --- | --- | --- | --- |
| O=[As][O-].[Na+] [arsenite] |  |  |  |  |  | inhibition of DLDH activity [1]: complete inhibition |
| CC[C@H](C(N)=O)[C@@H](C)CC [(2S,3S)-VCD] | did not show any significant teratogenic effects |  |  |  |  |  |
| CCCC(C(=O)O)C(C)CC (stereo not drawn) [SPA, sec-Butylpropylacetic acid] |  | Strong inhibition | 50 | 50 | 2000 | IC50 ([1]; […], pyruvate-dependent reduction of NAD(P)+ after 75 µM α-lipoamide, preincubation with 1 mM ATP): 100 µM |
| O=C(O)/C=C/c1ccccc1 [cinnamate] |  |  |  |  |  | effect on pyruvate-dependent swelling velocity (pyruvate transport) [5]: clearly inhibited |
| CCCC(CCC)C(=O)O [VPA, Valproic acid] |  | strongly inhibited | 50 | 50 | 10000 | therapeutic blood levels [6]: 40 to 100 mg/L; effect on pyruvate dehydrogenation velocity (PDH activity) (pyruvate dehydrogenase): slight increase; pyruvate-dependent re-reduction of NAD(P)+ after α-lipoamide ([1]; 0.5 and 1 mM VPA): strongly inhibited; glutamate-dependent re-reduction of NAD(P)+ after α-lipoamide ([1]; glutamate as substrate): no effects; IC50 ([1]; isolated rat liver mitochondria, pyruvate-dependent reduction of NAD(P)+ after 75 µM α-lipoamide, preincubation with 1 mM ATP): 80 µM; effect on pyruvate-dependent swelling velocity (pyruvate transport) [5]: no effect; IC50 ([3]; isolated rat liver mitochondria, 3 min preincubation with drug, 1 mM ATP, 5 mM MgCl2, 10 mM pyruvate, 5 mM malate, ADP, listed as valproic acid, read-out: Apparent IC50 of inhibition of pyruvate oxidation): ~50 µM |
| CCC(C)C(CC)C(N)=O (stereo not drawn) [VCD, Valnoctamide] | did not show any significant teratogenic effects | only small effects |  |  |  | block of pilocarpine-induced electrographic SE ([7]; 180 mg/kg): did block; protection against pilocarpine-induced status epilepticus ([7]; 65 mg/kg intraperitoneally at seizure onset): protected; protection against pilocarpine-induced status epilepticus ([7]; 80 mg/kg 30 min after seizure onset): protection was lost; IC50 [1, 11]: > 1000 µM; anticonvulsant activity: concentrations lower than VPA (epilepsy model): 2–16 times; biotransformation to the corresponding acid ([8]; in vivo): low biotransformation |
| CCCC(C(N)=O)C(C)CC (stereo not drawn) [SPD, sec-Butylpropylacetamide] |  | only small effects | 1000 | 3000 | 2000 | IC50 ([1]; […], pyruvate-dependent reduction of NAD(P)+, estimated value): > 1000 µM |
| CC[C@H](C)[C@@H](CC)C(N)=O [(2R,3S)-VCD] | did not show any significant teratogenic effects |  |  |  |  |  |
| Valnoctic acid [VCA] |  |  | 200 | 900 | 2000 | IC50 [1]: 300 µM; teratogenic effects (SWV/Finn mice; mouse, in vivo): did not show any significant teratogenic effects; IC50 ([3]; both substrates summarised together, preincubated in the presence of ATP, read-out: IC50 of inhibition of pyruvate and 2-oxoglutarate oxidation rates of liver mitochondria): 200 to 900 µM |
| CCCC(CCC)C(N)=O [VPD, Valpromide] |  | only small effects | 8000 | 5000 | 3000 | IC50 [1, 11]: > 1000 µM; biotransformation to the corresponding acid ([8]; humans): rapid transformation to VPA |
